Where a SMILES comes first, the peptide text is derived from it. [ ]: non-standard residue; d: D form.
Key:
[1] = target: Kappa-type opioid receptor (Homo sapiens, UniProt P41145); test: Binding affinity towards Opioid receptor kappa 1 using [3H]diprenorphine as radioligand expressed on chinese hamster ovary (CHO) cells; format: cell-based
[2] = target: Mu-type opioid receptor (Homo sapiens, UniProt P35372); test: Binding affinity towards Opioid receptor mu 1 using [3H]DAMGO as radioligand
[3] = target: Delta-type opioid receptor (Homo sapiens, UniProt P41143); test: Binding affinity towards Opioid receptor delta 1 using [3H]DPDPE as radioligand; design: species or system Cricetulus griseus
Delta-type opioid receptor, sequence (P41143 whole entry): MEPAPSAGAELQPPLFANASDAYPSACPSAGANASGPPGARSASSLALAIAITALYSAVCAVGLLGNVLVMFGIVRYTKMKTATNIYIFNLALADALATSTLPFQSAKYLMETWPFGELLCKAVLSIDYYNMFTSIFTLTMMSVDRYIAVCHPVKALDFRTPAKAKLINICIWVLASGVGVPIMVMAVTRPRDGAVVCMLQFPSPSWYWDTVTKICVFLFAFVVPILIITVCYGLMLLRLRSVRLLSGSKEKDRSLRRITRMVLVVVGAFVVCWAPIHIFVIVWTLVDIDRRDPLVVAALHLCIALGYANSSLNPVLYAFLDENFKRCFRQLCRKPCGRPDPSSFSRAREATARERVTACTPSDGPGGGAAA

Mu-type opioid receptor, sequence (P35372 whole entry): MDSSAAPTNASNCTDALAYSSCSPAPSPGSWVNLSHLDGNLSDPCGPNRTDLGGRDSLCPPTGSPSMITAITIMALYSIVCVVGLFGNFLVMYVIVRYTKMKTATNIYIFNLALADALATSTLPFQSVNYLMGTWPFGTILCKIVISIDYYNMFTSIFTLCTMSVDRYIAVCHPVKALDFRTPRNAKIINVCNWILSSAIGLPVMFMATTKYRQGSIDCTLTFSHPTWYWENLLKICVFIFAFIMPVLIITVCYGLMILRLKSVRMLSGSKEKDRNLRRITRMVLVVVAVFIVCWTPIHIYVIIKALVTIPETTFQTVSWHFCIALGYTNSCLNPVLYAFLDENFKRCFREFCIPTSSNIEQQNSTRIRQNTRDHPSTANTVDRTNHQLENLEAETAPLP
Kappa-type opioid receptor, sequence (P41145 whole entry): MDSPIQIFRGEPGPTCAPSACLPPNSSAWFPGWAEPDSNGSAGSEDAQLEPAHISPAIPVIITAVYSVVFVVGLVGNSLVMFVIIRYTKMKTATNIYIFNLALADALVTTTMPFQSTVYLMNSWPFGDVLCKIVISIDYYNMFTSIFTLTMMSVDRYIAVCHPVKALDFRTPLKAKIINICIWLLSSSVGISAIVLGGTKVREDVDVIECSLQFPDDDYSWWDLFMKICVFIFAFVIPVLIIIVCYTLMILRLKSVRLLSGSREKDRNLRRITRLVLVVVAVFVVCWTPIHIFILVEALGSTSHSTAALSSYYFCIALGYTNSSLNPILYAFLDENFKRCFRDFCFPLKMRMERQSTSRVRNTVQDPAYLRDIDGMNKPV

CSCC[C@H](NC(=O)[C@H](Cc1ccccc1)NC(=O)[C@H](CCCN=C(N)N)NC(C)=O)C(=O)N[C@@H](Cc1c[nH]c2ccccc12)C(=O)N[C@@H](CCSC)C(=O)N[C@@H](CCCN=C(N)N)C(=O)N[C@@H](CCCN=C(N)N)C(=O)N[C@H](C)C(=O)N[C@@H](CCCN=C(N)N)C(=O)N1CCC[C@H]1C(=O)N[C@@H](CCCCN)C(N)=O [EXTACET] showed a Ki [1] of 6.6 nM and a Ki [2] of 1.12 nM.

In the case of CC(=O)N[C@@H](Cc1ccccc1)C(=O)N[C@@H](Cc1ccccc1)C(=O)N[C@@H](Cc1ccccc1)C(=O)N[C@@H](CCCNC(=N)N)C(=O)N[C@@H](CC(C)C)C(=O)N[C@@H](CCCNC(=N)N)C(=O)N[C@@H](CCCNC(=N)N)C(=O)N[C@H](C)C(=O)N[C@@H](CCCNC(=N)N)C(=O)N1CCC[C@H]1C(=O)N[C@@H](CCCCN)C(N)=O (Ac-FFFRLRR[dA]RPK-NH2), the Ki [3] is reported as 5830 nM.

From ChEMBL document CHEMBL1135684, “Identification of arodyn, a novel acetylated dynorphin A-(1-11) analogue, as a kappa opioid receptor antagonist” (J Med Chem, 2002)
